Legend:
[1] = test system: human breast adenocarcinoma (MCF-7); experiment: Anti-cancer activity in vitro, MTT; format: cell-based
Procedure: (§1) In order to find out anticancer activity in vitro of the poly(organophosphazene) conjugated with anti-cancer drug of the present invention, the trial as follows was performed about the human breast adenocarcinoma (MCF-7, the Korea Cell Line Bank) and the human cervix adenocarcinoma (Hela, the Korea Cell Line Bank).
(§2) For the in vitro cell experiment, in order to measure the genesistasis concentration to 50% (IC50) toward the cancer cell of the poly(organophosphazene) conjugated with anticancer drug, the analytical method using 3-(4,5-dimethylthiazol-2-yl)-2,5-diphenyl-2H-tetrazolium bromide (MTT) was performed [T. Mosmann, J. Immunol. Method, 65, (1985) 55].
(§3) The materials for to measuring were respectively melted in the DMSO (dimethylsulfoxide) of the small amount, and they were diluted to the distilled water with 200 times. The materials solution were added to the cancer cell that is MCF-7(the Korea Cell Line Bank) and Hela (the Korea Cell Line Bank). Then, they were added to 96-well microtiter plater to 1.0×10^4 cell/ml (the concentration of the cancer cell). And they were cultivated for 2, 3, 4 days, respectively, with 37° C. in 5% CO2 condition.
(§4) MTT solution (20 μl) was mixed the cultivated cell with, and they were more cultivated for 4 hours with 37° C. in 5% CO2 condition. After the upper culture medium of each cell was removed, DMSO (100 μl) was added to a well and they were shaken in the room temperature to the plate shaker with for 20 minutes, thereby dissolving the formazan crystal generated by reducing of MTT.

[2] = test system: human cervix adenocarcinoma (Hela); experiment: Anti-cancer activity in vitro, MTT; format: cell-based
Procedure: as §1, §2, §3, §4

[3] = Hydrolysis of the polymer with time by GPC molecular weight; format: physicochemical; details: 10 wt % in PBS pH 7.4, 37° C., compared among Examples 3, 4 and 9
[4] = Sol-gel phase transition with change of temperature (Brookfield rheometer); format: physicochemical
Procedure: The poly(organophosphazene) conjugated with a drug or bioactivemolecules obtained in Examples 1 to 11 were respectively dissolved in phosphate buffered saline (pH 7.4) at 4° C. so as to make solutions with concentrations of 10 wt %. The solutions were put into a chamber of a Brookfield DV-III+ Rheometer equipped with a thermostatic bath (TC-501).

[5] = 10 wt % in phosphate buffered saline (pH 7.4)

poly[(isoleucineethylester)(aminomethoxypolyethyleneglycol 550)(glycylglycine)(glycylglycyldoxorubicin)phosphazene] [Example 3]
Anti-cancer activity [IC50] ([1]; MCF-7, 2nd day): 2.294 µg/mL
Anti-cancer activity [IC50] ([1]; MCF-7, 3rd day): 0.926 µg/mL
Anti-cancer activity [IC50] ([1]; MCF-7, 4th day): 0.798 µg/mL
Anti-cancer activity [IC50] ([2]; 2nd day): 1.477 µg/mL
Anti-cancer activity [IC50] ([2]; 3rd day): 1.065 µg/mL
Anti-cancer activity [IC50] ([2]; 4th day): 0.605 µg/mL
speed of hydrolysis (reduced molecular weight by GPC) [3]: the most slowly hydrolyzed
Gel solidity (maximum viscosity of the polymer solution) [4, 5]: 158 Pa · s
Max. gelling temp. (temperature where the viscosity of the polymer solution reaches the maximum point) [4, 5]: 38 °C
viscosity in 37° C. ([4]; compared among Examples 3, 4 and 9): the highest viscosity
